Marks after values point to notes of the source that are not given here.
Tests used:
[1] = tested on: Dunning R-3327 AT-1 tumour; test: Primary screen: tumour growth inhibition, Dunning R-3327 AT-1 prostatic cancer transplanted sc; format: in vivo, rat
Description: The compounds of general formula (I) were assayed for their capacity to inhibit of growth of the Dunning R-3327 AT-1 tumour, a prostatic rat cancer.
R-3327 AT-1 Prostatic cancer in man is an angiogenic type of solid tumour. The Dunning R-3327 AT-1 is a prostatic cancer of the rat and suits as an experimental animal model for this disease. The AT-1 tumour is serially transplanted subcutaneously (sc) on syngeneic rats of the Copenhagen strain. Small pieces of the tumour are transplanted sc to recipient rats and treatment of the tumour bearing rats start when the tumours are easily measurable approximately on day 10 after transplantation. Doses of the compounds are given either orally or parentally 5 days a week for four weeks. The tumour growth and body weight gain are monitored during the experimental time.

[2] = Beagle Pain Syndrome, pro-inflammatory reaction (ESR, AP); format: in vivo, beagle dog; settings: beagle dogs, five consecutive days
[3] = beagle dog, literature; cited from earlier work
[4] = patients with renal cell carcinoma; cited from earlier work
[5] = tested on: Dunning R-3327 rat prostatic cancers; settings: literature report; cited from earlier work
[6] = 8 mg/kg ip, treatment given on Day 11

## CSc1cccc2c1c(O)c(C(=O)N(C)c1ccc(F)cc1F)c(=O)n2C [C, N-methyl-N-(2,4-difluoro-phenyl)-1,2-dihydro-4-hydroxy-5-thiomethyl-1-methyl-2-oxo-quinoline-3-carboxamide]
[1]; 2 mg/kg po
  % Tumour Weight Reduction: 39%

## CN(C(=O)c1c(O)c2c(Cl)cccc2n(C)c1=O)c1ccc(Cl)cc1 [B, N-methyl-N-(4-chloro-phenyl)-1,2-dihydro-4-hydroxy-5-chloro-1-methyl-2-oxo-quinoline-3-carboxamide]
[1]; 2 mg/kg po
  % Tumour Weight Reduction: 28%

## CC[C@]1(O)C[C@@H]2CN(CCc3c([nH]c4ccccc34)[C@@](C(=O)OC)(c3cc4c(cc3OC)N(C)[C@H]3[C@@](O)(C(=O)OC)[C@H](OC(C)=O)[C@]5(CC)C=CCN6CC[C@]43[C@@H]65)C2)C1 [vinblastine]
[1]; 1 mg/kg iv, treatment given on Day 11
  % Tumour Weight Reduction: 0%
[1]; 4 mg/kg iv, treatment given on Day 11
  % Tumour Weight Reduction: toxic

## Cc1cccc2c1c(N)c(C(=O)N(C)c1ccccc1)c(=O)n2C [Compound D, N-methyl-N-phenyl-4-amino-1,2-dihydro-1,5-dimethyl-2-oxo-quinoline-3-carboxamide]
[1]; 2 mg/kg sc
  % Tumour Weight Reduction: 38%

## CCN(C(=O)c1c(O)c2c(Cl)cccc2n(C)c1=O)c1ccccc1 [Compound A, N-ethyl-N-phenyl-1,2-dihydro-4-hydroxy-5-chloro-1-methyl-2-oxo-quinoline-3-carboxamide]
[1]; 2 mg/kg sc
  % Tumour Weight Reduction: 37%
[2]; 1 mg/kg p. o.
  AP percentage change (Day 8 - baseline): 25%
  ESR percentage change (Day 8 - baseline): 177%
[2]; 10 mg/kg p. o.
  AP percentage change (Day 8 - baseline): 109%
  ESR percentage change (Day 8 - baseline): 515%

## COc1cccc2c1C(=O)c1c(O)c3c(c(O)c1C2=O)C[C@@](O)(C(=O)CO)C[C@@H]3O[C@H]1C[C@H](N)[C@H](O)[C@H](C)O1 [doxorubicin]
[1]; 4 mg/kg ip, treatment given on Day 11
  % Tumour Weight Reduction: 0%
[1]; [6]
  % Tumour Weight Reduction: 31^b) %
  body weight effect: ^b)8 mg/kg of doxorubicin caused a body weight loss

## CN(C(=O)c1c(O)c2ccccc2n(C)c1=O)c1ccccc1 [Compound E, N-methyl-N-phenyl-1,2-dihydro-4-hydroxy-1-methyl-2-oxo-quinoline-3-carboxamide]
[3]
  induction of beagle pain syndrome (fever, myalgia, arthralgia, arteritis): induces the beagle pain syndrome
[4]
  patients withdrawn or having dose reductions due to adverse events: 40%
[5]
  antitumour effects: antitumour effects
[1]; 4 mg/kg sc
  % Tumour Weight Reduction: 30%
[1]; 4 mg/kg, positive treatment control
  inhibition of growth of the Dunning R-3327 AT-1 tumour: 30%

— US6395750B1, “Drugs for the treatment of malignant tumors” (Active Biotech AB, priority 1999, dated 2002)
